Data as given in patent publication US20050197350A1, “Novel quinoline, tetrahydroquinazoline, and pyrimidine derivatives and methods of treatment related to the use thereof” (TAISHO PHARMACEUTICAL CO., LTD., priority 2003, published 2005).
Read-outs that look alike come from different tables or passages of the source.

System: MCH receptors
Experiment: MCH receptor activity class (method not given)
[1] = class 1-3 by percent of control at 10^-7 M or IC50
[2] = MCH receptor activity class 1-3 (percent of control at 10^-7 M or IC50)
[3] = MCH receptor, class by percent of control at 10^-7 M or IC50
[4] = class by percent of control at 10^-7 M or IC50
[5] = activity class per percent of control at 10^-7 M or IC50
[6] = class by percent of control at 10^−7 M or IC50
[7] = activity class 1-3: percent of control at 10^-7 M or IC50

CN(C)c1nc(N[C@H]2CC[C@@H](NC(=O)CCCOc3ccccc3)CC2)nc2c1CCCC2 [compound 556]
class [1]: 3 (Class 3 The value of percent of control at 10^−7 M was more than 60% or the value of IC50 was more than 200 nM.)

CN(C)c1cc(N[C@H]2CC[C@@H](CNC(=O)NCc3ccccc3Cl)CC2)nc2ccccc12 [compound 2375]
class [2]: 3 (Class 3 The value of percent of control at 10^−7 M was more than 60% or the value of IC50 was more than 200 nM.)

CN(C)c1nc(N[C@H]2CC[C@@H](NC(=S)Nc3cccc(C(=O)O)c3)CC2)nc2c1CCCC2 [compound 2009]
class [3]: 3 (Class 3 The value of percent of control at 10^−7 M was more than 60% or the value of IC50 was more than 200 nM.)

Cc1ccc(NC(=O)N[C@H]2CC[C@@H](Nc3nc4c(c(N(C)C)n3)CCCC4)CC2)c(C)c1 [compound 1847]
class [4]: 3 (Class 3 The value of percent of control at 10^−7 M was more than 60% or the value of IC50 was more than 200 nM.)

CN(C)c1nc(N[C@H]2CC[C@@H](NC(=O)CCCc3cccs3)CC2)nc2c1CCCC2 [compound 1022]
class [5]: 3 (Class 3 The value of percent of control at 10^−7 M was more than 60% or the value of IC50 was more than 200 nM.)

CN(C)c1ccnc(N[C@H]2CC[C@@H](CNC(=O)Nc3ccc(C#N)cc3)CC2)n1 [compound 2434]
class [2]: 3 (Class 3 The value of percent of control at 10^−7 M was more than 60% or the value of IC50 was more than 200 nM.)

CN(C)c1ccnc(N[C@H]2CC[C@@H](CNCc3ccc(OCc4ccc(Br)cc4)cc3)CC2)n1 [compound 1324]
class [4]: 2 (Class 2: The value of percent of control at 10^−7 M was from 40% to 60% or the value of IC′50 was from 50 nM to 200 nM.)

COc1cc(OC)cc(C(=O)N[C@H]2CC[C@@H](Nc3ncc(C)c(N(C)C)n3)CC2)c1 [compound 2900, N-(cis-4-{[4-(dimethylamino)-5-methylpyrimidin-2-yl]amino}cyclohexyl)-3,5-dimethoxybenzamide]
class [6]: 1 (Class 1: The value of percent of control at 10^−7 M was less than 40% or the value of IC50 was less than 50 nM.)

Cc1cc(C(=O)NC[C@H]2CC[C@@H](Nc3ncc(C)c(N(C)C)n3)CC2)ccc1Br [compound 2703, 4-bromo-N-[(cis-4-{[4-(dimethylamino)-5-methylpyrimidin-2-yl]amino}cyclohexyl)methyl]-3-methylbenzamide]
class [6]: 1 (Class 1: The value of percent of control at 10^−7 M was less than 40% or the value of IC50 was less than 50 nM.)

COc1cc(NC(=O)N[C@H]2CC[C@@H](Nc3cc(N(C)C)c4ccccc4n3)CC2)cc(OC)c1OC [compound 2149, N-(cis-4-{[4-(dimethylamino)quinolin-2-yl]amino}cyclohexyl)-N′-(3,4,5-trimethoxyphenyl)urea]
class [4]: 1 (Class 1: The value of percent of control at 10^−7 M was less than 40% or the value of IC50 was less than 50 nM.)

CN(C)c1ccnc(N[C@H]2CC[C@@H](CNC(=O)c3ccccc3Br)CC2)n1 [compound 438]
class [1]: 3 (Class 3 The value of percent of control at 10^−7 M was more than 60% or the value of IC50 was more than 200 nM.)

CN(C)c1nc(N[C@H]2CC[C@@H](NC(=S)Nc3c(F)cc(F)cc3F)CC2)nc2c1CCCC2 [compound 2001]
class [3]: 3 (Class 3 The value of percent of control at 10^−7 M was more than 60% or the value of IC50 was more than 200 nM.)

C/C(=C\c1ccccc1)C(=O)N[C@H]1CC[C@@H](Nc2nc3c(c(N(C)C)n2)CCCC3)CC1 [compound 523]
class [1]: 3 (Class 3 The value of percent of control at 10^−7 M was more than 60% or the value of IC50 was more than 200 nM.)

Cc1ccc(NC(=O)N[C@H]2CC[C@@H](Nc3nc4c(c(N(C)C)n3)CCCC4)CC2)c([N+](=O)[O-])c1 [compound 1832]
class [4]: 3 (Class 3 The value of percent of control at 10^−7 M was more than 60% or the value of IC50 was more than 200 nM.)

CCOc1ccc(OCC)c(CNC[C@H]2CC[C@@H](Nc3nc4c(c(N(C)C)n3)CCCC4)CC2)c1 [compound 1411]
class [4]: 1 (Class 1: The value of percent of control at 10^−7 M was less than 40% or the value of IC50 was less than 50 nM.)

CC(NC(=O)N[C@H]1CC[C@@H](Nc2nc3c(c(N(C)C)n2)CCCC3)CC1)c1cccc2ccccc12 (relative stereo) [compound 1704]
class [7]: 1 (Class 1: The value of percent of control at 10^−7 M was less than 40% or the value of IC50 was less than 50 nM.)

Cc1cc(N[C@H]2CC[C@@H](NC(=O)Nc3ccc(OCc4ccccc4)cc3)CC2)nc2ccccc12 [Example 2558, N-[4-(benzyloxy)phenyl]-N′-{cis-4-[(4-methylquinolin-2-yl)amino]cyclohexyl}urea]
class: 2

CCOC(=O)[C@H](Cc1ccccc1)NC(=O)N[C@H]1CC[C@@H](Nc2cc(N(C)C)c3ccccc3n2)CC1 (relative stereo) [compound 2160]
class [4]: 3 (Class 3 The value of percent of control at 10^−7 M was more than 60% or the value of IC50 was more than 200 nM.)

CN(C)c1cc(N[C@H]2CC[C@@H](NC(=O)Nc3ccc(F)cc3)CC2)nc2ccccc12 [compound 2094]
class [4]: 3 (Class 3 The value of percent of control at 10^−7 M was more than 60% or the value of IC50 was more than 200 nM.)

Cc1cc(NC(=O)N[C@H]2CC[C@@H](Nc3nc4c(c(N(C)C)n3)CCCC4)CC2)c(C(F)(F)F)o1 [compound 1692]
class [7]: 3 (Class 3 The value of percent of control at 10^−7 M was more than 60% or the value of IC50 was more than 200 nM.)

CSc1sc(C(=O)N[C@H]2CC[C@@H](Nc3cc(N(C)C)c4ccccc4n3)CC2)c(I)c1S(=O)(=O)C(C)C [compound 766]
class [4]: 3 (Class 3 The value of percent of control at 10^−7 M was more than 60% or the value of IC50 was more than 200 nM.)

CN(C)c1ccnc(N[C@H]2CC[C@@H](NC(=S)Nc3ccc(Br)cc3OC(F)(F)F)CC2)n1 [compound 2352]
class [2]: 3 (Class 3 The value of percent of control at 10^−7 M was more than 60% or the value of IC50 was more than 200 nM.)

CN(C)c1nc(N[C@H]2CC[C@@H](NC(=O)Nc3ccc(-c4ccccc4)s3)CC2)nc2c1CCCC2 [compound 1919]
class [3]: 3 (Class 3 The value of percent of control at 10^−7 M was more than 60% or the value of IC50 was more than 200 nM.)

COc1ccc(NC(=O)N[C@H]2CC[C@@H](Nc3cc(N(C)C)c4ccccc4n3)CC2)cc1Cl [compound 2151]
class [4]: 3 (Class 3 The value of percent of control at 10^−7 M was more than 60% or the value of IC50 was more than 200 nM.)

Cc1cnc(N[C@H]2CC[C@@H](C(=O)N[C@@H](C)c3ccc(F)cc3)CC2)nc1N(C)C [compound 2774, cis-4-{[4-(dimethylamino)-5-methylpyrimidin-2-yl]amino}-N-[(1S)-1-(4-fluorophenyl)ethyl]cyclohexanecarboxamide]
class [6]: 2 (Class 2: The value of percent of control at 10^−7 M was from 40% to 60% or the value of IC′50 was from 50 nM to 200 nM.)

CN(C)c1nc(N[C@H]2CC[C@@H](NC(=O)Nc3cccc(Cl)c3)CC2)nc2c1CCCC2 [compound 1814]
class [4]: 3 (Class 3 The value of percent of control at 10^−7 M was more than 60% or the value of IC50 was more than 200 nM.)

Cc1cnc(N[C@H]2CC[C@@H](NC(=O)COc3cccc(C(F)(F)F)c3)CC2)nc1N(C)C [compound 2878, N-(cis-4-{[4-(dimethylamino)-5-methylpyrimidin-2-yl]amino}cyclohexyl)-2-[3-(trifluoromethyl)phenoxy]acetamide]
class [6]: 1 (Class 1: The value of percent of control at 10^−7 M was less than 40% or the value of IC50 was less than 50 nM.)

Cc1cc(CN[C@H]2CC[C@@H](Nc3nc4c(c(N(C)C)n3)CCCC4)CC2)c(C)n1-c1ccccc1 [compound 1351]
class [4]: 3 (Class 3 The value of percent of control at 10^−7 M was more than 60% or the value of IC50 was more than 200 nM.)

CCc1ccccc1CNC[C@H]1CC[C@@H](Nc2cc(N(C)C)c3ccccc3n2)CC1 [compound 1201]
class [4]: 3 (Class 3 The value of percent of control at 10^−7 M was more than 60% or the value of IC50 was more than 200 nM.)

CN(C)c1ccnc(N[C@H]2CC[C@@H](CNC(=O)Oc3ccc4ccccc4c3)CC2)n1 [compound 1649]
class [7]: 3 (Class 3 The value of percent of control at 10^−7 M was more than 60% or the value of IC50 was more than 200 nM.)

Cc1ccc(C(=O)CC(C(=O)N[C@H]2CC[C@@H](Nc3nccc(N(C)C)n3)CC2)c2cn(C)c3ccccc23)cc1 (relative stereo) [compound 862, N-(cis-4-{[4-(dimethylamino)pyrimidin-2-yl]amino}cyclohexyl)-2-(1-methyl-1H-indol-3-yl)-4-(4-methylphenyl)-4-oxobutanamide]
class [4]: 1 (Class 1: The value of percent of control at 10^−7 M was less than 40% or the value of IC50 was less than 50 nM.)

CN(C)c1nc(N[C@H]2CC[C@@H](NC(=O)c3ccc(C(F)(F)F)c(F)c3)CC2)nc2c1CCCC2 [compound 1048]
class [5]: 3 (Class 3 The value of percent of control at 10^−7 M was more than 60% or the value of IC50 was more than 200 nM.)

COc1cc(C(=O)N[C@H]2CC[C@@H](Nc3nc(C)cc(N(C)C)n3)CC2)cc(OC)c1OC [compound 2991, N-(cis-4-{[4-(dimethylamino)-6-methylpyrimidin-2-yl]amino}cyclohexyl)-3,4,5-trimethoxybenzamide]
class [6]: 1 (Class 1: The value of percent of control at 10^−7 M was less than 40% or the value of IC50 was less than 50 nM.)

CN(C)c1ccnc(N[C@H]2CC[C@@H](NC(=O)c3cccc(I)c3)CC2)n1 [compound 276, N-(cis-4-{[4-(dimethylamino)pyrimidin-2-yl]amino}cyclohexyl)-3-iodobenzamide]
class [4]: 1 (Class 1: The value of percent of control at 10^−7 M was less than 40% or the value of IC50 was less than 50 nM.)

CN(C)c1nc(N[C@H]2CC[C@@H](NC(=O)c3c(F)c(F)c(F)c(F)c3F)CC2)nc2c1CCCC2 [compound 566]
class [1]: 3 (Class 3 The value of percent of control at 10^−7 M was more than 60% or the value of IC50 was more than 200 nM.)

COc1cccc(CNC[C@H]2CC[C@@H](Nc3nccc(N(C)C)n3)CC2)c1OC [compound 1297]
class [4]: 3 (Class 3 The value of percent of control at 10^−7 M was more than 60% or the value of IC50 was more than 200 nM.)
